# Laboratory results from ChEMBL document CHEMBL1128087, “Novel substituted indolocarbazoles as potent and selective inhibitors of protein kinase C” (Bioorg Med Chem Lett, 1995).
# Target: cAMP-dependent protein kinase (PKA) (Homo sapiens) (UniProt P22694+P17612+P22612)
# Test: In vitro inhibitory activity against Protein Kinase A at a concentration of 10 uM
# Assay type: protein assay
row,Compound,inhibition [%]
1,O=C(CCn1c2ccccc2c2c3c(c4c5ccccc5[nH]c4c21)C(=O)NC3)NCC1CCOC1 (stereo not drawn),41
2,CN1CCCC1CCNC(=O)CCn1c2ccccc2c2c3c(c4c5ccccc5[nH]c4c21)C(=O)NC3 (stereo not drawn),25
3,COC(=O)c1cc(C(=O)c2cc(C(=O)c3cc(NC(=O)CCn4c5ccccc5c5c6c(c7c8ccccc8[nH]c7c54)C(=O)NC6)cn3C)cn2C)cn1C,40
4,CN(C)CCCNC(=O)CCn1c2ccccc2c2c3c(c4c5ccccc5[nH]c4c21)C(=O)NC3,41

# The remaining lines, values ahead:
row,inhibition [%],Compound
1,40,COC(=O)c1cc(NC(=O)CCn2c3ccccc3c3c4c(c5c6ccccc6[nH]c5c32)C(=O)NC4)cn1C
2,43,COC(=O)c1cc(C(=O)c2cc(NC(=O)CCn3c4ccccc4c4c5c(c6c7ccccc7[nH]c6c43)C(=O)NC5)cn2C)cn1C
3,42,O=C(CCn1c2ccccc2c2c3c(c4c5ccccc5[nH]c4c21)C(=O)NC3)NCCN1CCCCC1
4,49,O=C(CCn1c2ccccc2c2c3c(c4c5ccccc5[nH]c4c21)C(=O)NC3)NCCN1CCOCC1
